In patent US10821195B2, “Compositions for therapeutics, targeted PET imaging and methods of their use” (Memorial Sloan Kettering Cancer Center, priority 2015, dated 2020):

Experiments:
[1] = Metal ion challenge of ^177Lu-HOPO and ^177Lu-DOTA; type: physicochemical; conditions: 10-fold excess Cu^2+, Fe^3+, Ga^3+, Gd^3+, 6 d
Protocol: The incubations were performed at 37° C. in a thermomixer over the course of 6 d and analyzed by radioTLC using C-18 TLC plates developed with 50 mM DTPA at 1, 3, and 6 d.

[2] = Hydroxyapatite stability (competition); type: physicochemical; conditions: after 6 d, 37° C.
Protocol: Additionally, each day the mixtures were vortexed to ensure proper mixing. At the respective time point, the aliquot was vortexed, centrifuged, vortexed, filtered (0.45 μm, 13 mm, nylon syringe filter, Fisher Scientific, Waltham, Mass.), and the filter washed with 1 mL of 50:50 EtOH in water. The filter (bound to hydroxyapatite), reaction tube, and filtrate (bound to the chelator) were counted separately on a gamma counter to determine the amount of activity in each.

[3] = Biodistribution of ^177Lu-HOPO and ^177Lu-DOTA in healthy female nude mice; type: in vivo
Protocol: Therefore, healthy female nude mice were injected with each of the complexes in order to determine their relative in vivo stabilities. The results are tabulated in Table 3 and are shown as graphs in FIG. 21A, FIG. 21B and FIG. 22.
Aliquots of the injectate (10 μL) were weighed and counted as standards with the tissues. The injection syringes were weighed pre- and post-injection to determine the weight of injectate and the activity according to the dose calibrator was measured before and after injection. All of the tissues were weighed and counted with the standards. The standards were used to obtain the counts/g injectate, the weights of the injectate were used to determine the total number of counts for the injected dose (ID), the counts of the tissue were used to get the % ID, and the weights of the tissues were used to obtain the % ID/g. Standard averaging and standard deviation calculations were applied.

Log D7.4 in octanol/PBS = type: physicochemical

O=C([O-])CN1CCN(CC(=O)[O-])CCN(CC(=O)[O-])CCN(CC(=O)[O-])CC1.[177Lu+3].[H+] [^177Lu-DOTA]
stability to transmetallation [1]: stable to transmetallation with all of the metals investigated in this study | complex intact in hydroxyapatite competition [2]: > 98% | Blood/Bone ratio ([3]; 0.5 h): 5 ± 2 | Kidney/Bone ratio ([3]; 0.5 h): 13 ± 7 | L. Intestine/Bone ratio ([3]; 0.5 h): 0.6 ± 0.3 | Liver/Bone ratio ([3]; 0.5 h): 2.2 ± 0.7 | Muscle/Bone ratio ([3]; 0.5 h): 0.9 ± 0.5 | S. Intestine/Bone ratio ([3]; 0.5 h): 1.6 ± 0.6 | biodistribution Bladder ([3]; 0.5 h): 0.691 ± 0.116 % ID/g | biodistribution Blood ([3]; 0.5 h): 0.407 ± 0.179 % ID/g | biodistribution Bone ([3]; 0.5 h): 0.090 ± 0.026 % ID/g | biodistribution Heart ([3]; 0.5 h): 0.142 ± 0.069 % ID/g | biodistribution Kidneys ([3]; 0.5 h): 1.121 ± 0.490 % ID/g | biodistribution L. Intestine ([3]; 0.5 h): 0.056 ± 0.025 % ID/g | biodistribution Liver ([3]; 0.5 h): 0.199 ± 0.033 % ID/g | biodistribution Lungs ([3]; 0.5 h): 0.298 ± 0.131 % ID/g | biodistribution Muscle ([3]; 0.5 h): 0.085 ± 0.037 % ID/g | biodistribution Pancreas ([3]; 0.5 h): 0.080 ± 0.037 % ID/g | biodistribution S. Intestine ([3]; 0.5 h): 0.142 ± 0.038 % ID/g | biodistribution Spleen ([3]; 0.5 h): 0.103 ± 0.019 % ID/g | biodistribution Stomach ([3]; 0.5 h): 0.120 ± 0.035 % ID/g | Blood/Bone ratio ([3]; 1 h): 0.6 ± 0.4 | Kidney/Bone ratio ([3]; 1 h): 30 ± 30 | L. Intestine/Bone ratio ([3]; 1 h): 0.26 ± 0.19 | Liver/Bone ratio ([3]; 1 h): 2.3 ± 1.7 | Muscle/Bone ratio ([3]; 1 h): 0.4 ± 0.4 | S. Intestine/Bone ratio ([3]; 1 h): 1.5 ± 1.1 | biodistribution Bladder ([3]; 1 h): 0.2962 ± 0.1869 % ID/g | biodistribution Blood ([3]; 1 h): 0.0287 ± 0.0038 % ID/g | biodistribution Bone ([3]; 1 h): 0.0491 ± 0.0349 % ID/g | biodistribution Heart ([3]; 1 h): 0.0142 ± 0.0016 % ID/g | biodistribution Kidneys ([3]; 1 h): 1.4402 ± 1.2901 % ID/g | biodistribution L. Intestine ([3]; 1 h): 0.0129 ± 0.0015 % ID/g | biodistribution Liver ([3]; 1 h): 0.1121 ± 0.0174 % ID/g | biodistribution Lungs ([3]; 1 h): 0.0444 ± 0.0175 % ID/g | biodistribution Muscle ([3]; 1 h): 0.0219 ± 0.0154 % ID/g | biodistribution Pancreas ([3]; 1 h): 0.0143 ± 0.0050 % ID/g | biodistribution S. Intestine ([3]; 1 h): 0.0722 ± 0.0209 % ID/g | biodistribution Spleen ([3]; 1 h): 0.0410 ± 0.0100 % ID/g | biodistribution Stomach ([3]; 1 h): 0.0230 ± 0.0174 % ID/g | Blood/Bone ratio ([3]; 4 h): 0.18 ± 0.06 | Kidney/Bone ratio ([3]; 4 h): 40 ± 30 | L. Intestine/Bone ratio ([3]; 4 h): 6 ± 7 | Liver/Bone ratio ([3]; 4 h): 10 ± 4 | Muscle/Bone ratio ([3]; 4 h): 0.74 ± 0.15 | S. Intestine/Bone ratio ([3]; 4 h): 3 ± 3 | biodistribution Bladder ([3]; 4 h): 0.1088 ± 0.0148 % ID/g | biodistribution Blood ([3]; 4 h): 0.0011 ± 0.0003 % ID/g | biodistribution Bone ([3]; 4 h): 0.0060 ± 0.0007 % ID/g | biodistribution Heart ([3]; 4 h): 0.0052 ± 0.0016 % ID/g | biodistribution Kidneys ([3]; 4 h): 0.2398 ± 0.1571 % ID/g | biodistribution L. Intestine ([3]; 4 h): 0.0361 ± 0.0403 % ID/g | biodistribution Liver ([3]; 4 h): 0.0614 ± 0.0205 % ID/g | biodistribution Lungs ([3]; 4 h): 0.0080 ± 0.0044 % ID/g | biodistribution Muscle ([3]; 4 h): 0.0044 ± 0.0007 % ID/g | biodistribution Pancreas ([3]; 4 h): 0.0068 ± 0.0038 % ID/g | biodistribution S. Intestine ([3]; 4 h): 0.0209 ± 0.0180 % ID/g | biodistribution Spleen ([3]; 4 h): 0.0249 ± 0.0009 % ID/g | biodistribution Stomach ([3]; 4 h): 0.0038 ± 0.0026 % ID/g | Blood/Bone ratio ([3]; 1 d): 0.04 ± 0.02 | Kidney/Bone ratio ([3]; 1 d): 46 ± 12 | L. Intestine/Bone ratio ([3]; 1 d): 10 ± 7 | Liver/Bone ratio ([3]; 1 d): 7.6 ± 1.6 | Muscle/Bone ratio ([3]; 1 d): 0.6 ± 0.3 | S. Intestine/Bone ratio ([3]; 1 d): 4 ± 3 | biodistribution Bladder ([3]; 1 d): 0.1599 ± 0.07394 % ID/g | biodistribution Blood ([3]; 1 d): 0.0002 ± 0.00011 % ID/g | biodistribution Bone ([3]; 1 d): 0.00484 ± 0.00076 % ID/g | biodistribution Heart ([3]; 1 d): 0.0027 ± 0.00067 % ID/g | biodistribution Kidneys ([3]; 1 d): 0.2226 ± 0.04562 % ID/g | biodistribution L. Intestine ([3]; 1 d): 0.05022 ± 0.03098 % ID/g | biodistribution Liver ([3]; 1 d): 0.0369 ± 0.00538 % ID/g | biodistribution Lungs ([3]; 1 d): 0.0041 ± 0.00192 % ID/g | biodistribution Muscle ([3]; 1 d): 0.00281 ± 0.00151 % ID/g | biodistribution Pancreas ([3]; 1 d): 0.00337 ± 0.00062 % ID/g | biodistribution S. Intestine ([3]; 1 d): 0.02037 ± 0.01362 % ID/g | biodistribution Spleen ([3]; 1 d): 0.02143 ± 0.00625 % ID/g | biodistribution Stomach ([3]; 1 d): 0.00294 ± 0.00146 % ID/g | Blood/Bone ratio ([3]; 6 d): 0.007 ± 0.015 | Carcass/Bone ratio ([3]; 6 d): 0.60 ± 0.17 | Kidney/Bone ratio ([3]; 6 d): 10 ± 4 | L. Intestine/Bone ratio ([3]; 6 d): 0.34 ± 0.10 | Liver/Bone ratio ([3]; 6 d): 4.2 ± 1.2 | Muscle/Bone ratio ([3]; 6 d): 0.16 ± 0.12 | S. Intestine/Bone ratio ([3]; 6 d): 0.24 ± 0.07 | biodistribution Bladder ([3]; 6 d): 0.1186 ± 0.05899 % ID/g | biodistribution Blood ([3]; 6 d): 0.00003 ± 0.00006 % ID/g | biodistribution Bone ([3]; 6 d): 0.00412 ± 0.00104 % ID/g | biodistribution Carcass ([3]; 6 d): 0.0025 ± 0.0003 % ID/g | biodistribution Heart ([3]; 6 d): 0.00158 ± 0.00062 % ID/g | biodistribution Kidneys ([3]; 6 d): 0.04311 ± 0.01362 % ID/g | biodistribution L. Intestine ([3]; 6 d): 0.0014 ± 0.00017 % ID/g | biodistribution Liver ([3]; 6 d): 0.01724 ± 0.00259 % ID/g | biodistribution Lungs ([3]; 6 d): 0.00142 ± 0.00102 % ID/g | biodistribution Muscle ([3]; 6 d): 0.00067 ± 0.00046 % ID/g | biodistribution Pancreas ([3]; 6 d): 0.0012 ± 0.00048 % ID/g | biodistribution S. Intestine ([3]; 6 d): 0.001 ± 0.00011 % ID/g | biodistribution Spleen ([3]; 6 d): 0.01313 ± 0.00408 % ID/g | biodistribution Stomach ([3]; 6 d): 0.00045 ± 0.00010 % ID/g | biodistribution Bone ([3]; 6 d, listed as Lu-DOTA): 0.004±0.001 % ID/g | residual activity in all tissues and carcass ([3]; 6 d p.i.): 0.092±0.009 % ID | residual activity in carcass ([3]; 6 d p.i.): 0.044±0.004 % ID | clearance pathway ([3]; healthy female nude mice): excreted mostly via the renal-urinary clearance pathway | Log D7.4 (Log D7.4 in octanol/PBS): −4.1±0.4
